Reference: patent US6541477B2, “Inhibitors of p38-a kinase” (Scios, Inc., priority 1999, dated 2003)

Experiments:
p38-α kinase [1] = molecular target: T1, p38-α kinase (Homo sapiens, UniProt Q16539); test: biochemical; details: for inhibition at 15 µM: read-out: % Inhibition of p38α kinase at 15 μM; for inhibition at 0.2 µM: read-out: percent inhibition of p38α at 200 nM
[2] = Molar refraction (MR) of the ortho substituent as a measure of its size; type: physicochemical; details: as described by Hansch, J Med Chem 1973
Protocol: The molar refraction values for the ortho derivatives containing chloro, bromo and methoxy substituents were determined as a measure of the size of the substituent as described by Hansch, C. et al., J Med Chem (1973) 16:1207-1216. A linear correlation between the MR values and percent inhibition of p38α at 200 nM concentrations of the compounds was obtained. […] Thus, it appears that the ability to inhibit p38α kinase is dependent on the size of the ortho substituent. While not intending to be bound by any theory, applicants believe that the bulkier substituents rotate the aroyl moiety out of the plane of the piperidine or piperazine ring.

p38-α kinase [3] = molecular target: T1, p38-α kinase; details: 15 μM compound

T1 sequence (Q16539 whole entry): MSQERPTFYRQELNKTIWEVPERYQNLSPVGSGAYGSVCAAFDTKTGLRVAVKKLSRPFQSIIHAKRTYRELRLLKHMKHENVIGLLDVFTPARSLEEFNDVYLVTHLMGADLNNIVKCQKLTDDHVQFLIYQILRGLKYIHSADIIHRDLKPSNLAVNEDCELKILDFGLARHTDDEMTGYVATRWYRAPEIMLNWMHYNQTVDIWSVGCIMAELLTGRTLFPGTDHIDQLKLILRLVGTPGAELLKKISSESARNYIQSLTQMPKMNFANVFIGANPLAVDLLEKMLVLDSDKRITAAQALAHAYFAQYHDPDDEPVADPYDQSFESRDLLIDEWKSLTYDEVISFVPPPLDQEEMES

| % Inhibition of p38α kinase at 15 μM (p38-α kinase [3]) | SMILES | other results |
| --- | --- | --- |
| – | COc1ccc(C(=O)N2CCC(Cc3ccccc3)CC2)cc1 [compound 2, 1-(4-methoxybenzoyl)-4-benzyl piperidine] | IC50 (p38-α kinase [1]): 605 nM |
| – | COc1cccc(C(=O)N2CCC(Cc3ccccc3)CC2)c1 [compound 5, 1-(3-methoxybenzoyl)-4-benzyl piperidine] | IC50 (p38-α kinase [1]): 1100 nM |
| – | O=C(c1ccccc1Cl)N1CCC(Cc2ccccc2)CC1 [compound 7, 1-(2-chlorobenzoyl)-4-benzyl piperidine] | MR value (molar refraction) [2]: about 6; inhibition at 15 µM (p38-α kinase [1]): 99%; inhibition at 0.2 µM (p38-α kinase [1]): 52% |
| – | O=C(c1ccccc1Br)N1CCC(Cc2ccccc2)CC1 [compound 8, 1-(2-bromobenzoyl)-4-benzyl piperidine] | MR value (molar refraction) [2]: approximately 9; inhibition at 15 µM (p38-α kinase [1]): 99%; inhibition at 0.2 µM (p38-α kinase [1]): 72% |
| – | COc1ccccc1C(=O)N1CCC(Cc2ccccc2)CC1 [compound 10, 1-(2-methoxybenzoyl)-4-benzyl piperidine] | MR value (molar refraction) [2]: about 8 |
| – | Cc1ccccc1C(=O)N1CCC(Cc2ccccc2)CC1 [compound 11, 1-(2-methylbenzoyl)-4-benzyl piperidine] | inhibition at 15 µM (p38-α kinase [1]): 98% |
| 74% | O=C(c1cccc(Br)c1)N1CCC(Cc2ccccc2)CC1 [meta-Br] | – |
| 49% | O=C(c1cccc(C(F)(F)F)c1)N1CCC(Cc2ccccc2)CC1 [meta-CF3] | – |
| 80% | O=C(c1cccc(Cl)c1)N1CCC(Cc2ccccc2)CC1 [meta-Cl] | – |
| 92% | O=C(c1cccc(F)c1)N1CCC(Cc2ccccc2)CC1 [meta-F] | – |
| 90% | Cc1cccc(C(=O)N2CCC(Cc3ccccc3)CC2)c1 [meta-methyl] | – |
| 98% | O=C(c1ccccc1C(F)(F)F)N1CCC(Cc2ccccc2)CC1 [ortho-CF3] | – |
| 98% | O=C(c1ccccc1F)N1CCC(Cc2ccccc2)CC1 [ortho-F] | – |
| 96% | O=C(c1ccc(Br)cc1)N1CCC(Cc2ccccc2)CC1 [para-Br] | – |
| 66% | O=C(c1ccc(C(F)(F)F)cc1)N1CCC(Cc2ccccc2)CC1 [para-CF3] | – |
| 85% | O=C(c1ccc(Cl)cc1)N1CCC(Cc2ccccc2)CC1 [para-Cl] | – |
| 94% | O=C(c1ccc(F)cc1)N1CCC(Cc2ccccc2)CC1 [para-F] | – |
| 97% | Cc1ccc(C(=O)N2CCC(Cc3ccccc3)CC2)cc1 [para-methyl] | – |
